# The Kinase Knowledgebase extract (Sharma et al. 2016)
# Target: CDK2 (human) (UniProt P24941)
# Assay: Enzyme Assay
row,IC50 [µM],SMILES
1,50,CC(=O)Nc1ccc(CN/C=C2\C(=O)NC(=O)c3ccc(Br)cc32)cc1O
2,13.1,CC(C)(C)c1ccc2c(c1)C(=CNCc1ccc(-c3ccoc3)c(O)c1)C(=O)NC2=O
3,50,O=C1NC(=O)c2ccc(-c3ccoc3)cc2/C1=C/NCc1ccc(OC(F)F)c(O)c1
4,0.7,CCCOc1ccc(CN/C=C2\C(=O)NC(=O)c3ccc(I)cc32)nc1O
5,50,O=C1NC(=O)c2ccc(Br)cc2/C1=C/NCc1ccc(OCCO)c(O)c1
6,50,Cc1cccc(-c2ccc3c(c2)C(=CNCc2ccc(O)c(O)c2)C(=O)NC3=O)c1
7,23,O=C1NC(=O)c2ccccc2/C1=C/Nc1ccc(CN2CCCCC2)cc1
8,50,COc1ccc(CNC=C2C(=O)NC(=O)c3ccc(-c4ccc5ccccc5c4)cc32)cc1O
9,2.4,COc1cnc(CNC=C2C(=O)NC(=O)c3ccc(-n4cccc4)cc32)cc1O
10,29,C=CCOc1ccc(CN/C=C2\C(=O)NC(=O)c3ccc(Br)cc32)cc1O
11,13.1,CC(C)(C)c1ccc2c(c1)C(=CNCc1cc(O)ccc1-c1ccoc1)C(=O)NC2=O
